Measurements published in patent publication US20070276011A1, “Plasminogen Activator Inhibitor-1 Inhibitor” (priority 2003, published 2007).

biological target: recombinant human PAI-1 (Homo sapiens, UniProt P05121); assay: PAI-1 inhibitory activity, Test Method A (tPA fluorogenic substrate, Tris buffer pH8.0, 37 C); format: biochemical; settings: 25 μM test compound; Test Method A
Experimental: To this solution, 50 μL solution of 400 μM fluogenic substrate for tPA (Pyr-Gly-Arg-MCA, Peptide Institute, Inc.) adjusted with the same buffer was added, and reacted for 30 minutes at 37° C. The reaction was stopped by adding 50 μL of 2% acetic acid. Fluorescence was measured at the excitation wavelength=360 nm, emission wavelength=460 or 465 nm using a microplate reader (SPECTRAFLUOR or GENios) by TECAN. The fluorescence intensities in the presence of the PAI-1 as the control (DMSO) or in the absence of the PAI-1 (tPA alone) were taken as 100% and 0% of PAI-1 activities, respectively, and inhibitory ratios of PAI-1 activities in the presence of the test compound were obtained.
<Composition of the Tris Buffer (pH8.0)>

Chain of recombinant human PAI-1 (P05121 24-402): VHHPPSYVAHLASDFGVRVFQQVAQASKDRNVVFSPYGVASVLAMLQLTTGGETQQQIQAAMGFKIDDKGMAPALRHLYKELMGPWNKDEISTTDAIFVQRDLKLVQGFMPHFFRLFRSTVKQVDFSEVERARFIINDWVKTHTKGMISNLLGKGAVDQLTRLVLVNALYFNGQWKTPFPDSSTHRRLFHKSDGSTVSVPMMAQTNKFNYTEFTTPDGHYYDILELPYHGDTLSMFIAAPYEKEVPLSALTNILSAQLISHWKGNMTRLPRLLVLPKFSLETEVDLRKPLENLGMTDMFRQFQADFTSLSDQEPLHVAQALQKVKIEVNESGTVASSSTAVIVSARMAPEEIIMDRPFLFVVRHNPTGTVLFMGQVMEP

Compound | Inhibitory Ratio at 25 μM (%)
O=C1SC(=Cc2cc(O)c3c(c2)OCO3)C(=O)N1Cc1ccc(Cl)c(Cl)c1 [compound 324] | 65
COc1ccc(NC(=O)c2cc(C=C3SC(=O)N(Cc4cc(C(F)(F)F)ccc4C(F)(F)F)C3=O)ccc2O)cc1OC [compound 372, 5-[4-Hydroxy-3-(3,4-dimethoxyphenylcarbamoyl)benzylidene]-3-[2,5-bis(trifluoromethyl)benzyl]thiazolidine-2,4-dione] | >99
O=C(O)c1cc(C=C2SC(=O)N(Cc3ccc(Cl)c(Cl)c3)C2=O)cc(-c2ccccc2)c1O [compound 430] | 87
CC(C)C1=NN(c2ccc(Cl)c(Cl)c2)C(=O)C1=Cc1cc(C=Cc2ccc(Oc3ccccc3)cc2)ccc1O [Compound No. 566] | 76
COc1ccc(NC(=O)c2cc(C=C3SC(=O)N(Cc4ccc(Cl)c(Cl)c4)C3=O)ccc2O)cn1 [compound 407, 5-{4-hydroxy-3-[(2-methoxypyridin-5-yl)carbamoyl]benzylidene}-3-(3,4-dichlorobenzyl)thiazolidine-2,4-dione] | 97
COC(=O)c1cccc(NC(=O)c2cc(C=C3SC(=O)N(Cc4ccc(Cl)c(Cl)c4)C3=O)ccc2O)c1 [compound 417, 5-{4-hydroxy-3-[3-(methoxycarbonyl)phenylcarbamoyl]benzylidene}-3-(3,4-dichlorobenzyl)thiazolidine-2,4-dione] | 59
O=C(Nc1cc(F)ccc1F)c1cc(C=C2SC(=O)N(Cc3ccc(Cl)c(Cl)c3)C2=O)ccc1O [compound 465] | 69
COC(=O)c1cc(C=C2SC(=O)N(Cc3ccc(Cl)cc3Cl)C2=O)cc(O)c1O [compound 341, 5-[3,4-Dihydroxy-5-(methoxycarbonyl)benzylidene]-3-(2,4-dichlorobenzyl)thiazolidine-2,4-dione] | >99
O=C(Nc1cc(C(F)(F)F)ccc1[N+](=O)[O-])c1cc(C=C2SC(=O)N(Cc3ccc(Cl)c(Cl)c3)C2=O)ccc1O [compound 466] | >99
COc1ccc(Oc2ccc(C(F)(F)F)cc2NC(=O)c2cc(C=C3SC(=O)N(Cc4cccc(Oc5ccccc5)c4)C3=O)ccc2O)cc1 [compound 421, 5-(4-hydroxy-3-{[2-(4-methoxyphenoxy)-5-(trifluoromethyl)-phenyl]carbamoyl}benzylidene)-3-(3-phenoxybenzyl)thiazolidine-2,4-dione] | >99
COc1ccc(NC(=O)c2cc(C=C3SC(=O)N(Cc4ccc(Cl)c(Cl)c4)C3=O)ccc2O)cc1OC [compound 432, 5-[4-hydroxy-3-(3,4-dimethoxyphenylcarbamoyl)benzylidene]-3-(3,4-dichlorobenzyl)thiazolidine-2,4-dione] | 64
COc1ccc(-c2cc(C=C3SC(=O)N(Cc4ccc(Cl)c(Cl)c4)C3=O)ccc2OC)cc1 [compound 448, 5-[4-Methoxy-3-(4-methoxyphenyl)benzylidene]-3-(3,4-dichlorobenzyl)thiazolidine-2,4-dione] | 51
CC(C)C1=NN(c2ccc(C=Cc3ccccn3)cc2)C(=O)C1=Cc1cc(C=Cc2ccccc2)ccc1O [compound 544, 4-(2-Hydroxy-5-styrylbenzylidene)-1-{4-[2-(pyridin-2-yl)vinyl]phenyl}-3-isopropyl-2-pyrazolin-5-one] | 41
CCOC1=NN(c2ccc([N+](=O)[O-])cc2)C(=O)C1=Cc1cc(C=Cc2ccccc2)ccc1OC [compound 537] | 66
O=C1SC(=Cc2cc(C=Cc3ccccc3)ccc2O)C(=O)N1Cc1ccc(Cl)c(Cl)c1 [compound 322, 5-(2-Hydroxy-5-styrylbenzylidene)-3-(3,4-dichlorobenzyl)thiazolidine-2,4-dione] | 89
CCOC1=NN(c2ccc([N+](=O)[O-])cc2)C(=O)C1=Cc1cc(C=Cc2ccc(Oc3ccccc3)cc2)ccc1O [Compound No. 565, 4 [2-Hydroxy-5-(4-phenoxystyryl)benzylidene]-1-(4-nitrophenyl)-3-ethoxy-2-pyrazolin-5-one] | >99
COC(=O)c1ccc(CN2C(=O)SC(=Cc3ccc(O)c(C(=O)Nc4ccc(Cl)c(Cl)c4)c3)C2=O)cc1 [compound 415, 5-[4-hydroxy-3-(3,4-dichlorophenylcarbamoyl)benzylidene]-3-(4-methoxycarbonylbenzyl)thiazolidine-2,4-dione] | >99
CCOC1=NN(c2ccc([N+](=O)[O-])cc2)C(=O)C1=Cc1cc(C(C)(C)C)ccc1O [compound 548] | 32
COC(=O)c1ccc(NC(=O)c2cc(C=C3SC(=O)N(Cc4ccc(Cl)c(Cl)c4)C3=O)ccc2O)cc1OC [compound 405, 5-{4-hydroxy-3-[3-methoxy-4-(methoxycarbonyl)phenylcarbamoyl]-benzylidene}-3-(3,4-dichlorobenzyl)thiazolidine-2,4-dione] | 55
COc1ccc(NC(=O)c2cc(C=C3SC(=O)N(Cc4ccc([N+](=O)[O-])cc4)C3=O)ccc2O)cc1OC [compound 376, 5-[4-Hydroxy-3-(3,4-dimethoxyphenylcarbamoyl)benzylidene]-3-(4-nitrobenzyl)thiazolidine-2,4-dione] | 84
COc1ccc(C=Cc2ccccc2)cc1C=C1C(=O)N(c2ccc(C(=O)O)cc2)N=C1C(C)C [compound 535] | 75
COc1cc(C=C2SC(=O)N(Cc3ccc(Cl)c(Cl)c3)C2=O)cc(C(=O)Nc2cc(C(F)(F)F)cc(C(F)(F)F)c2)c1O [compound 438] | >99
COC(=O)c1cc(C=C2SC(=O)N(Cc3ccc(Cl)cc3Cl)C2=O)cc(OC)c1O [compound 429] | 83
COC(=O)c1cccc(NC(=O)c2cc(C=C3SC(=O)N(Cc4ccc(Cl)c(Cl)c4)C3=O)cc(O)c2O)c1 [compound 470] | 95
CCOC1=NN(c2ccc([N+](=O)[O-])cc2)C(=O)C1=Cc1c(O)ccc2ccccc12 [compound 546] | 96
COc1ccc(OC)c(NC(=O)c2cc(C=C3SC(=O)N(Cc4ccc(Cl)c(Cl)c4)C3=O)ccc2O)c1 [compound 471] | 96
COC(=O)c1cc(C=C2SC(=O)N(Cc3ccc(Cl)c(Cl)c3)C2=O)cc(O)c1O [compound 344] | >99
Cc1cc(C=C2SC(=O)N(Cc3ccc(Cl)c(Cl)c3)C2=O)cc(C(=O)O)c1O [compound 390, 5-(3-Methyl-4-hydroxy-5-carboxybenzylidene)-3-(3,4-dichlorobenzyl)thiazolidine-2,4-dione] | >99

same assay, conditions: test compound 25 μM; Test Method A

Compound | Inhibitory Ratio at 25 μM (%)
O=C(O)c1cccc(N2N=C(C(F)(F)F)C(=Cc3ccc(-c4cc(Cl)cc(Cl)c4)o3)C2=O)c1 [compound 162] | 56
O=C1SC(=Cc2cccc(O)c2O)C(=O)N1Cc1ccc([N+](=O)[O-])cc1 [compound 51, 5-(2,3-dihydroxybenzylidene)-3-(4-nitrobenzyl)thiazolidine-2,4-dione] | 86
CC(C)C1=NN(c2ccc(Cl)nc2)C(=O)C1=Cc1cc(O)c(O)cc1O [compound 222, 4-(2,4,5-Trihydroxybenzylidene)-1-(2-chloropyridin-5-yl)-3-isopropyl-2-pyrazolin-5-one] | 79
CC1=NN(c2ccc(S(N)(=O)=O)cc2)C(=O)C1=Cc1ccc(-c2cccc(Cl)c2)o1 [compound 186] | 30
O=C1C(=Cc2ccc(Br)o2)C(C(F)(F)F)=NN1c1cccc([N+](=O)[O-])c1 [compound 195] | 30
CC1=NN(c2cccc(C(F)(F)F)c2)C(=O)C1=Cc1cccc(O)c1 [compound 122] | 35
COc1cc(C=C2C(=O)N(c3cccc(Cl)c3)N=C2C)cc(O)c1O [compound 124] | 33
COC(=O)c1cccc(N2N=C(C(C)C)C(=Cc3ccc4c(c3)OCO4)C2=O)c1 [compound 208] | 47
O=C1SC(=Cc2ccc(O)cc2O)C(=O)N1Cc1ccc(Cl)c(Cl)c1 [compound 45] | >99
CC1=NN(c2cccc(Cl)c2)C(=O)C1=Cc1cc(O)c(O)cc1O [compound 158] | 72
CC1=NN(c2ccc(Cl)c(Cl)c2)C(=O)C1=Cc1ccc(O)c(O)c1 [compound 152] | 89
O=C(O)c1cccc(N2N=C(c3ccccc3)C(=Cc3ccc(Br)o3)C2=O)c1 [compound 215] | 77
O=C1SC(=Cc2ccc(O)c(O)c2)C(=O)N1Cc1cccc(C(F)(F)F)c1 [compound 42] | >99
O=C1SC(=Cc2ccc(O)c(O)c2)C(=O)N1Cc1ccc(C=Cc2cc(C(F)(F)F)cc(C(F)(F)F)c2)cc1 [compound 58, 5-(3,4-Dihydroxybenzylidene)-3-{4-[3,5-bis(trifluoromethyl)styryl]-benzyl}thiazolidine-2,4-dione] | 95
O=C1C(=Cc2ccc(-c3cc(Cl)cc(Cl)c3)o2)C(c2ccccc2)=NN1c1cccc([N+](=O)[O-])c1 [compound 167, 4-{[5-(3,5-Dichlorophenyl)furan-2-yl]methylene}-1-(3-nitrophenyl)-3-phenyl-2-pyrazolin-5-one] | 50
CC(C)(C)c1cc(CN2C(=O)SC(=Cc3cccc(O)c3O)C2=O)cc(C(C)(C)C)c1O [compound 13, 5-(2,3-Dihydroxybenzylidene)-3-[3,5-di(tert-butyl)-4-hydroxybenzyl]-thiazolidine-2,4-dione] | >99
CC1=NN(c2cccc(C(F)(F)F)c2)C(=O)C1=Cc1ccc(O)c(O)c1 [compound 113] | 68
